Reference: ChEMBL document CHEMBL3525990, “Organic anion transporter 3 interacts selectively with lipophilic β-lactam antibiotics” (Drug Metab Dispos, 2013)

Assays:
[1] = target: T1, Solute carrier family 22 member 6 (Mus musculus, UniProt Q8VC69); test: Inhibition of mouse OAT1 expressed in CHO cells assessed as inhibition of fluorescein uptake at 500 uM over 20 mins relative to untreated-control; assay type: ADME, cell-based
T1 sequence (Q8VC69 whole entry): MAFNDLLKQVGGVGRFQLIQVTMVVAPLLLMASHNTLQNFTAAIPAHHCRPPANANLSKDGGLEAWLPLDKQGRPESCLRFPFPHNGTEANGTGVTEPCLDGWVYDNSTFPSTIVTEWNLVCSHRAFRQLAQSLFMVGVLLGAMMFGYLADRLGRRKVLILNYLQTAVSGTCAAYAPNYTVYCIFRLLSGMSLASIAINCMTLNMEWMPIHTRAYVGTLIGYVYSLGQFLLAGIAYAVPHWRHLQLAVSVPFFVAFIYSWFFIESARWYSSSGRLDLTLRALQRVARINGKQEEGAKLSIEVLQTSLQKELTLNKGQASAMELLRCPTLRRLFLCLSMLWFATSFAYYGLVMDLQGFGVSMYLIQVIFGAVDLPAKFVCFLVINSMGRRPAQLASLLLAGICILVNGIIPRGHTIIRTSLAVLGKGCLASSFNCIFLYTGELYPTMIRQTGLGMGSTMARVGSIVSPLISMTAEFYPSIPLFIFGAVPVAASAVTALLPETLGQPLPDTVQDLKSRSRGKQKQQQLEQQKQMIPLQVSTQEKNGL

[2] = target: T2, Organic anion transporter 3 (Mus musculus, UniProt O88909); test: Inhibition of mouse OAT3 expressed in CHO cells assessed as inhibition of fluorescein uptake at 500 uM over 20 mins relative to untreated-control; assay type: ADME, cell-based
T2 sequence (O88909 whole entry): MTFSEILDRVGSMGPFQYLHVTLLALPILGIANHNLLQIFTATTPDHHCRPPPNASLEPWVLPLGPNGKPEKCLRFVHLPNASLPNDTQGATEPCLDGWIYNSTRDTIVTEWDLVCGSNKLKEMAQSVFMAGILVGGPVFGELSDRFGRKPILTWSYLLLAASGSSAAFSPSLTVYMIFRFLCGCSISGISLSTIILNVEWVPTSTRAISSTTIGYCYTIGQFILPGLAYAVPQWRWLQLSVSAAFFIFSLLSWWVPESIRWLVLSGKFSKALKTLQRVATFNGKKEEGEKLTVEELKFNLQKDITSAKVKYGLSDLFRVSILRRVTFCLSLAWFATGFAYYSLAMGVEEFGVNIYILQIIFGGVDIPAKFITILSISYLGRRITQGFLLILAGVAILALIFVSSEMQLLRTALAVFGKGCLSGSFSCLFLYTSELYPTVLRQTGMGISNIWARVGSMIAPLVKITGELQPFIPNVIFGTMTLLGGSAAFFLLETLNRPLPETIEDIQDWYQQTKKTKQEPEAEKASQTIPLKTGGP

[3] = target: T3, Organic anion transporter 3 (Homo sapiens, UniProt Q8TCC7); test: (§1) Inhibition of human OAT3 expressed in CHO cells assessed as inhibition of fluorescein uptake at 500 uM over 20 mins relative to untreated-control; assay type: ADME, cell-based; details: cho, 20 min, 500 µM
T3 sequence (Q8TCC7 whole entry): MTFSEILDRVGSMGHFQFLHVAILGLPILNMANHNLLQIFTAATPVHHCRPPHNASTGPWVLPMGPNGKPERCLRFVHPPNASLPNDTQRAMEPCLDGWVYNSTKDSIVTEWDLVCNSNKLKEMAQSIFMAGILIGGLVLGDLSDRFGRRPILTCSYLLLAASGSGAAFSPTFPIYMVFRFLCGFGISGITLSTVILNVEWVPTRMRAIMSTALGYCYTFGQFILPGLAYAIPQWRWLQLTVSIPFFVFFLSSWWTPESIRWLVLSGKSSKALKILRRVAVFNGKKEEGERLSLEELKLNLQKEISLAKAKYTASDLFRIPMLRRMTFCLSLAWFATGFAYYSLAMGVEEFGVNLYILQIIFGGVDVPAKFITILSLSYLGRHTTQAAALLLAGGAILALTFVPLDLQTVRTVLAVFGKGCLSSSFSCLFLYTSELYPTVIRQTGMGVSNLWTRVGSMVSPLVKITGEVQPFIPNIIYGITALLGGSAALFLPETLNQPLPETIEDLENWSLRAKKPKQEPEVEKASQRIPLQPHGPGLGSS

OAT3 [4] = target: T4, OAT3 (Homo sapiens, UniProt Q8TCC7); test: Inhibition of human OAT3 expressed in CHO cells assessed as inhibition of fluorescein uptake over 20 mins relative to untreated-control; assay type: ADME, cell-based; details: CHO cells expressing human OAT3, probe fluorescein
T4 sequence (Q8TCC7 whole entry): T3 sequence (Q8TCC7 whole entry)

[5] = target: T3, Organic anion transporter 3; test: Inhibition of human OAT3 using estrone-3-sulfate as substrate; assay type: ADME
[6] = target: T2, Organic anion transporter 3; test: Inhibition of mouse OAT3 expressed in CHO cells assessed as inhibition of fluorescein uptake at 1 mM over 20 mins relative to untreated-control; assay type: ADME, cell-based; details: 1000 µM
OAT3 [7] = target: T4, OAT3; test: as §1; assay type: ADME, cell-based; details: CHO cells expressing human OAT3, probe fluorescein
[8] = target: T2, Organic anion transporter 3; test: Inhibition of mouse OAT3 expressed in CHO cells assessed as inhibition of fluorescein uptake over 20 mins; assay type: ADME, cell-based
[9] = target: T3, Organic anion transporter 3; test: Inhibition of human OAT3 expressed in CHO cells assessed as inhibition of fluorescein uptake at 1 mM over 20 mins relative to untreated-control; assay type: ADME, cell-based; details: 1000 µM
[10] = target: T2, Organic anion transporter 3; test: Inhibition of mouse OAT3 expressed in CHO cells assessed as inhibition of fluorescein uptake over 20 mins by Michaelis-Menten method; assay type: ADME, cell-based
[11] = target: T3, Organic anion transporter 3; test: Inhibition of human OAT3 expressed in CHO cells assessed as inhibition of fluorescein uptake over 20 mins by Michaelis-Menten method; assay type: ADME, cell-based
[12] = target: T2, Organic anion transporter 3; test: Inhibition of mouse OAT3 expressed in CHO cells assessed as inhibition of fluorescein uptake at 1 mM after 10 mins; assay type: ADME, cell-based; details: 1000 µM

| inhibition (INH) [1] | inhibition (INH) [2] | inhibition (INH) [3] | IC50 [8] | Compound | also measured |
| --- | --- | --- | --- | --- | --- |
| Not Active | Not Active | Not Active |  | CC1(C)S[C@@H]2[C@H](NC(=O)[C@H](N)c3ccccc3)C(=O)N2[C@H]1C(=O)O [AMPICILLIN] |  |
| Not Active | Not Active | Not Active |  | CC1(C)S[C@@H]2[C@H](NC(=O)[C@H](NC(=O)N3CCNC3=O)c3ccccc3)C(=O)N2[C@H]1C(=O)O [AZLOCILLIN] |  |
|  | Not Active | Not Active |  | CC1(C)S[C@@H]2[C@H](NC(=O)C(C(=O)O)c3ccccc3)C(=O)N2[C@H]1C(=O)O (some centres not stated) [CARBENICILLIN] | inhibition at 20 min (OAT3 [4]): 70% |
| Not Active | Not Active | Active |  | N[C@@H](C(=O)N[C@@H]1C(=O)N2C(C(=O)O)=C(Cl)CS[C@H]12)c1ccccc1 [CEFACLOR ANHYDROUS] | IC50 [5]: 120 µM |
|  | Not Active |  |  | CC1=C(C(=O)O)N2C(=O)[C@@H](NC(=O)[C@H](N)c3ccc(O)cc3)[C@H]2SC1 [CEFADROXIL] | inhibition (INH) [6]: Not Active; inhibition at 20 min, 500 µM (OAT3 [7]): 20% |
| Active | Not Active | Not Active | 105 µM | CO[C@@]1(NC(=O)CSCC#N)C(=O)N2C(C(=O)O)=C(CSc3nnnn3C)CS[C@@H]21 [CEFMETAZOLE] |  |
|  | Not Active | Not Active |  | CCN1CCN(C(=O)N[C@@H](C(=O)N[C@@H]2C(=O)N3C(C(=O)O)=C(CSc4nnnn4C)CS[C@H]23)c2ccc(O)cc2)C(=O)C1=O [CEFOPERAZONE] |  |
|  | Not Active | Not Active |  | CO/N=C(\C(=O)N[C@@H]1C(=O)N2C(C(=O)O)=C(COC(C)=O)CS[C@H]12)c1csc(N)n1 [CEFOTAXIME] |  |
| Not Active | Not Active | Not Active | 57 µM | CO[C@@]1(NC(=O)Cc2cccs2)C(=O)N2C(C(=O)O)=C(COC(N)=O)CS[C@@H]21 [CEFOXITIN] |  |
| Not Active | Not Active | Not Active |  | NC(=O)c1cc[n+](CC2=C(C(=O)O)N3C(=O)[C@@H](NC(=O)[C@@H](c4ccccc4)S(=O)(=O)[O-])[C@H]3SC2)cc1 [CEFSULODIN] |  |
| Not Active | Not Active | Not Active | 35.7 µM | CO/N=C(\C(=O)N[C@@H]1C(=O)N2C(C(=O)O)=C(CSC(=O)c3ccco3)CS[C@H]12)c1csc(N)n1 [CEFTIOFUR] |  |
| Not Active | Not Active | Not Active |  | CO/N=C(\C(=O)N[C@@H]1C(=O)N2C(C(=O)O)=C(COC(N)=O)CS[C@H]12)c1ccco1 [CEFUROXIME] |  |
| Not Active |  | Not Active |  | CC1=C(C(=O)O)N2C(=O)[C@@H](NC(=O)[C@H](N)c3ccccc3)[C@H]2SC1 [CEPHALEXIN ANHYDROUS] |  |
|  | Not Active | Not Active | 33.3 µM | CC(=O)OCC1=C(C(=O)O)N2C(=O)[C@@H](NC(=O)Cc3cccs3)[C@H]2SC1 [CEPHALOTHIN] |  |
| Not Active | Not Active | Not Active | 30.9 µM | Cc1onc(-c2ccccc2Cl)c1C(=O)N[C@@H]1C(=O)N2[C@@H]1SC(C)(C)[C@@H]2C(=O)O [CLOXACILLIN] |  |
| Active | Active | Active | 16.6 µM | Cc1onc(-c2c(Cl)cccc2Cl)c1C(=O)N[C@@H]1C(=O)N2[C@@H]1SC(C)(C)[C@@H]2C(=O)O [DICLOXACILLIN] |  |
| Not Active | Not Active | Not Active | 116 µM | COc1cccc(OC)c1C(=O)N[C@@H]1C(=O)N2[C@@H]1SC(C)(C)[C@@H]2C(=O)O [METHICILLIN] |  |
| Not Active | Not Active | Not Active | 34.9 µM | CCOc1ccc2ccccc2c1C(=O)N[C@@H]1C(=O)N2[C@@H]1SC(C)(C)[C@@H]2C(=O)O [NAFCILLIN] |  |
|  |  | Active | 89.4 µM | CC1(C)S[C@@H]2[C@H](NC(=O)Cc3ccccc3)C(=O)N2[C@H]1C(=O)O [PENICILLIN G] |  |
| Not Active | Not Active | Not Active | 48.6 µM | CC1(C)S[C@@H]2[C@H](NC(=O)COc3ccccc3)C(=O)N2[C@H]1C(=O)O [PENICILLIN V] |  |
| Active | Not Active | Not Active |  | CCN1CCN(C(=O)N[C@@H](C(=O)N[C@@H]2C(=O)N3[C@@H]2SC(C)(C)[C@@H]3C(=O)O)c2ccccc2)C(=O)C1=O [PIPERACILLIN] |  |
|  | Not Active | Not Active | 3.02 µM | CCCN(CCC)S(=O)(=O)c1ccc(C(=O)O)cc1 [PROBENECID] | inhibition (INH) [6]: Active; inhibition (INH) [9]: Active; inhibition (INH) [10]: Dose-dependent effect; inhibition (INH) [11]: Dose-dependent effect; inhibition (INH) [12]: Active |
|  | Not Active | Not Active | 233 µM | CC1(C)S[C@@H]2[C@H](NC(=O)[C@H](C(=O)O)c3ccsc3)C(=O)N2[C@H]1C(=O)O [TICARCILLIN] |  |

| Compound | inhibition (INH) [1] | inhibition (INH) [2] | inhibition (INH) [3] | IC50 [8] | also measured |
| --- | --- | --- | --- | --- | --- |
| CC1(C)S[C@@H]2[C@H](N)C(=O)N2[C@H]1C(=O)O | Not Active | Not Active | Not Active |  |  |
| C[C@H]1[C@H](NC(=O)/C(=N\OC(C)(C)C(=O)O)c2csc(N)n2)C(=O)N1S(=O)(=O)O [AZTREONAM] | Not Active | Not Active | Not Active |  |  |
| CC(C)(O/N=C(\C(=O)N[C@@H]1C(=O)N2C(C(=O)[O-])=C(C[n+]3ccccc3)CS[C@H]12)c1csc(N)n1)C(=O)O [CEFTAZIDIME] | Not Active | Not Active | Not Active |  |  |
| Cc1onc(-c2ccccc2)c1C(=O)N[C@@H]1C(=O)N2[C@@H]1SC(C)(C)[C@@H]2C(=O)O [OXACILLIN] | Not Active | Active | Active | 35 µM |  |
